SMILES strings stand for the structures. “Also recorded” adds a separate entry of the source.

Assay [1] relates to vesicular stomatitis virus protein. The conditions noted are these: Rossi et al., J. Biol. Chem. 271, 32192 (1996); cited from earlier work.
The subject of a further assay is HSP70. The following applies: cited from earlier work.
Assay [2] deals with HL-60 cells. As to the kind of experiment: MTT growth inhibition of HL-60. The class given is cell-based, human. The following applies: for inhibition activity of the growth of cancer cells (in words): Example 5; for activity at 10 µM / activity at 20 µM / activity at 40 µM: read-out: degree of cell growth (ratio of absorbance at 590 nm of sample-added section to control). The method, then: (§1) (2) To each of the wells of a 96-well microtiter plate was added 8, 40, 200 or 1000 μM aqueous solution of GM or 10 μl of water as a control. HL-60 (ATCC CCL-240) was suspended in an RPMI 1640 medium containing 10% of fetal calf serum to make the concentration 5×10^4 cells/ml and each 90 μl thereof was placed in each well of the above-mentioned microtiter plate and incubated at 37° C. for 48 hours in the presence of 5% carbon dioxide. Incubation was conducted for four hours more after addition of 10 μl of a solution (5 mg/ml) of 3-(4,5-dimethylthiazol-2-yl)-2,5-diphenyltetrzolium bromide (MTT; manufactured by Sigma) in a phosphate-buffered saline solution and the state of growth of the cells was observed under a microscope. Further, 100 μl of 2-propanol containing 0.04N hydrochloric acid was added followed by stirring and an absorbance at 590 nm was measured.
(3) To each well of the 96-well microtiter plate was added 100, 200 or 400 μM aqueous solution of GM or CM or 10 μl of water as a control and the inhibition activity of growth of HL-60 was measured by the same method as mentioned in Example 5-(2). The degree of cell growth was, however, expressed in terms of the ratio (%) of the absorbance at 590 nm of the sample-added section to that of the water-added section (the control).
(§2) (5) To each well of the 96-well microtiter plate was added 4.12, 12.3, 37.0, 111, 333 or 1000 μM aqueous solution of GD or 10 μl of water as a control. HL-60 (ATCC CCL-240) was suspended in an RPMI 1640 medium containing 10% of fetal calf serum to make the concentration 5×10^4 cells/ml and each 90 μl thereof was placed in each well of the above-mentioned microtiter plate followed by incubating at 37° C. for 48 hours in the presence of 5% carbon dioxide gas. The incubation was conducted for four hours more after addition of 10 μl of 5 mg/ml solution of 3-(4,5-dimethylthiazol-2-yl)-2,5-diphenyltetrazolium bromide (MTT; manufactured by Sigma) in a phosphate-buffered saline solution and the state of growth of the cells was observed under a microscope. In the meanwhile, 100 μl of 2-propanol containing 0.04N HCl was added followed by well stirring and the absorbance at 590 nm was measured.
(6) Cyclopentenone and L-cysteine hydrochloride were dissolved in a phosphate buffered saline solution (pH 7.2) to make their concentrations 55 mM and 80 mM, respectively and made to react at 37° C. for 15 minutes at pH 7.2. Apart of the reaction solution was analyzed by a reversed phase HPLC using a column of TSK gel ODS-80Ts (4.6 mm×250 mm; manufactured by Tosoh)at the flow rate of 1 ml/minute using 0.1% aqueous solution of trifluoroacetic acid as a mobile phase whereupon no cyclopentenone was detected. This reaction solution was a solution containing 55 mM of CD.
Degree of cell growth was, however, expressed in terms of the ratio (%) of the absorbance at 590 nm of the section to which the sample was added to that of the control where water was added.

The test system of assay [3] is Bacillus subtilis IFO 3021. Briefly: Antibacterial activity, viable cell numbers. The conditions noted are these: compared with GM. In kind it is cell-based. The method, then: Bacillus subtilis IFO 3021 was incubated (by mans of a seed culture) overnight in a sensitive bouillon medium (manufactured by Nissui). Absorbance at 600 nm was measured and viable cell numbers were calculated from the previously-prepared calibration curve showing the relation between the viable cell numbers and absorbance at 600 nm. The seed-cultured liquid was diluted with a fresh sensitive bouillon medium to make the concentration 1×10^6 cells/ml and each 180 μl thereof was placed in each well of the 96-well microtiter plate. Each 20 μl of aqueous solution of GM (4 mg/ml or 2 mg/ml) or water was added to each well followed by allowing to a stationary culture at 37° C. for one night (main incubation) In the meanwhile, a part of the seed culture liquid was diluted with sterilized water, spread onto a sensitive bouillon agar plate medium and incubated at 37° C. for one night and the colonies were counted to measure the precise viable cell numbers.
The cultured liquid in each of the wells was diluted with sterilized water, spread onto a sensitive bouillon agar plate medium and incubated at 37° C. for one night and the colonies were counter to measure the viable cell numbers.

Another assay deals with mouse leukemia P-388. As to the kind of experiment: Mouse leukemia P-388 survival (macrobiotic effect) in DBA/2 mice. The class given is in vivo. The following applies: 10 mg/kg/day i.p., five days. On the procedure:
GM was diluted with a physiological saline solution to a predetermined concentration and subjected to the following tests.
(2) Mouse leukemia P-388 (1.1×10^6 cells/mouse) was intraperitoneally injected to female DBA/2 mice (body weight: about 20 g) of seven weeks age. After that, GM, CM, GD or CD (10 mg/kg/day) was intraperitoneally injected for consecutive five clays. In the meanwhile, a physiological saline solution was intraperitoneally injected to the control group by the same manner. In the two group each consisting of eight mice, survived numbers, average survived days and macrobiotic rate of the mice were calculated.

Another assay deals with IMC. Briefly: IMC/CDF1 mice macrobiotic effect. In kind it is in vivo.
The subject of the next assay is Sarcoma-180. Briefly: Sarcoma-180/ICR mice macrobiotic effect. The class given is in vivo.
The subject of assay [4] is HL-60 cells. Briefly: Apoptosis in HL-60 cells (apoptic bodies, DNA fragmentation). In kind it is cell-based, human. The conditions noted are these: at each of the cell-growth-inhibiting concentrations. On the procedure:
(1) Each 0.5 ml of 0.2 mM CM, 0.8 mM CM or 1.6 mM CM was added to 4.5 ml of RPMI 1640 medium containing 10% of fetal calf serum and 2.5×10^5HL-60 cells (promyelocytic leukemia cell) (ATCC CCL-240) and incubated at 37° C. for 24 hours or 48 hours in the presence of 5% carbon dioxide gas and the numbers of viable cells were measured.
as §1
(4) HL-60 cells (ATCC CCL240) which were incubated at 37° C. in an RPMI 1640 medium (manufactured by Nissui) containing 10% of fetal calf serum (manufactured by Gibco) treated at 56° C. for 30 minutes were suspended in the above medium to make the concentration 2.5×10^5cells/4.5 ml. To this suspension was added 0.5 ml of 100 μM aqueous solution of GM (final concentration: 10 μM) followed by incubating at 37° C. in the presence of 5% carbon dioxide gas for 24 hours, 48 hours and 72 hours.
as §2

For a further assay, the system named is EAC. As to the kind of experiment: EAC/DDY mice macrobiotic effect. In kind it is in vivo.
Assay [5] deals with Sendai virus protein synthesis. The following applies: Amici et al., J. Virology 68, 6890 (1994); cited from earlier work.
Another assay has as its system HSP70 and HSP90. The conditions noted are these: Amici et al., J. Virology 68, 6890 (1994); cited from earlier work.

`O=C1C=CCC1` [2-cyclopenten-1-one]: the “synthesis of vesicular stomatitis virus protein” value in [1] is listed as “inhibits the synthesis of vesicular stomatitis virus protein”. Also, the “synthesis of HSP70” value with HSP70 (Rossi et al., J. Biol. Chem. 271, 32192 (1996)) is “induces the synthesis of HSP70”. For the same compound, the “concentration required for inducing the HSP70” value in the assay with HSP70 was “several hundred”.
Regarding `N[C@@H](CSC1CC(=O)C(O)C1O)C(=O)O` (some centres unmarked) [CD], the “inhibition activity of the growth of cancer cells (in words)” value in the assay on HL-60 cells [2] is recorded as “inhibition activity of the growth of cancer cells”. For the same compound, the activity at 10 µM in the assay on HL-60 cells [2] (Homo sapiens, HL-60, 48 hours) is 89%. In the assay with HL-60 cells [2] (Homo sapiens, HL-60, 48 hours), the activity at 20 µM was found to be 56.2%. Further, in the assay with HL-60 cells [2] (Homo sapiens, HL-60, 48 hours), the activity at 40 µM is 5.3%. The “antibacterial activity (in words)” value in assay [3] was “same results”. Also, the “macrobiotic effect (average survived days)” value with mouse leukemia P-388 is given as “significant macrobiotic effect”. In addition, the macrobiotic effect entry in the assay with IMC, with Sarcoma-180 and in the assay on EAC was “same macrobiotic effect” in each case. Further, the “apoptic bodies in the cells” value with HL-60 cells [4] is “Apoptic bodies were produced in the cells”.
Turning to `N[C@@H](CCC(=O)N[C@@H](CSC1CC(=O)C(O)C1O)C(=O)NCC(=O)O)C(=O)O` (some centres unmarked) [GD, 2,3-dihydroxy-4-glutathion-S-yl-cyclopentanone], the “inhibition activity of the growth of cancer cells (in words)” value in the assay on HL-60 cells [2] is on record as “inhibition activity of the growth of cancer cells”. For the same compound, in the assay with HL-60 cells [2] (Homo sapiens, HL-60, 48 hours), the activity at 10 µM came out at 47.2%, the activity at 20 µM came out at 5.8% and the activity at 40 µM was determined as 2.1%. In addition, the IC100 in the assay with HL-60 cells [2] (Homo sapiens, HL-60, 48 hours, MTT, final concentration, read-out: concentration at which growth of HL-60 cells was completely inhibited) amounted to 3.7 µM. Also, the “antibacterial activity (in words)” value in [3] is given as “same results”. Also, in the assay on mouse leukemia P-388, the “macrobiotic effect (average survived days)” value is reported as “significant macrobiotic effect”. Moreover, the macrobiotic effect result in the assay on IMC is on record as “same macrobiotic effect”. Also, in the assay on Sarcoma-180, the macrobiotic effect entry is recorded as “same macrobiotic effect”. Besides, the “apoptic bodies in the cells” value in the assay on HL-60 cells [4] is reported as “apoptic bodies were detected; also recorded: Apoptic bodies were produced in the cells”. Also, the macrobiotic effect result in the assay with EAC was “same macrobiotic effect”.
Consider `CCCCC[C@H](O)/C=C/[C@H]1C=CC(=O)[C@@H]1CCCCCCC(=O)O` [prostaglandin Al], for which the “synthesis of virus protein” value in [5] was “synthesis of virus protein is inhibited”. Further, the “synthesis of HSP70 and HSP90” value in the assay with HSP70 and HSP90 is “synthesis of HSP70 and HS?90 is induced”.

The values are drawn from US6177592A, “Compounds” (priority 1997, dated 2001).
